From US20130266557A1, “METHODS FOR TREATMENT OF A SARCOMA USING AN EPIMETABOLIC SHIFTER (COENZYME Q10)” (priority 2009, published 2013)

Tested on: NCIES0808 cells
Assay: Real-time PCR, Human Diabetes Arrays
Assay type: cell-based
Protocol: NCIES0808 cells were plated in T25 flasks at a density of 2×10^6 cells per flask in media or media containing 50 uM/100 uM Q10. All treatment groups were run in triplicate. Cells were harvested at 0, 3, 6, 24 or 48 hours. Pictures were taken to examine cell morphology before harvesting. To harvest cells, media was removed but saved to be able to collect floating apoptotic cells. Cells were trypsinized with 1 ml of trypsin-EDTA and the enzyme action was stopped by addition of 4 ml complete media. Trypsinized cells were added to the appropriate tube containing the media with dead cells. Cells were centrifuged at 1200 rpm for 5 minutes and media was aspirated leaving behind the cell pellet for RNA extraction. RNA isolation from cell pellets was carried out with the RNeasy kit (Qiagen, Valencia Calif.) according to the manufacturer's instructions. RNA samples were eluted from spin columns in water; absorbance was measured at 260 nm, 230 nm and 280 nm. The purity of RNA was evaluated by the 260/230 and 280/230 ratios. The concentration of RNA in all of the samples was calculated from absorbance values at […]. First strand cDNA was synthesized from 0.5 ug of all RNA samples using instructions provided with the First strand kit (SABiosciences, Frederick, Md.). The synthesized first strand from a sample was dispensed equally in a PCR array plate containing primers within a pathway (Angiogenesis, Diabetes and Mitochondria) (SABiosciences Corporation, Frederick, Md.). The arrays were amplified with real time PCR using the SYBR green detection methods using manufacturer approved protocols. The ct values from each of the samples were normalized to three housekeeping genes and fold regulation of Q10 treated groups was compared to time matched controls from cells grown in regular media was calculated.
The experiments described in this example were performed to test the overall hypothesis that Q10 would have an impact on expression of multiple genes in Ewing's sarcoma cells. The mRNA from NCIES0808 cells treated with 50 μM or 100 μM Q10 for various times was evaluated by RT-PCR against a panel of target proteins involved in human diabetes, human angiogenesis or human mitochondrial pathways.
Ct values obtained from a real time thermocycler were loaded onto the analysis tool on the SABiosciences website for calculation of fold regulation compared to cells with media. The genes that are included in the tables below are those that show a p value of close to 0.05.

Coenzyme Q10 [CoQ10] was tested, and the “Pattern of regulation, FOXP3 mRNA” value (6 hours, 50 uM Q10) was “Upregulation at 6 hours with 50 uM and 100 uM Q10”, the “Pattern of regulation, FOXP3 mRNA” value (6 hours, 100 uM Q10) was “Upregulation at 6 hours with 50 uM and 100 uM Q10” and the “Pattern of regulation, GCGR mRNA” value (6 hours, 100 uM Q10) was “Upregulation at 6 hours with 100 uM Q10”. For the same substance, the “Pattern of regulation, GPD1 mRNA” value (6 hours, 100 uM Q10) was “Upregulation at 6 hours with 100 uM Q10”, the “Pattern of regulation, INPPL1 mRNA” value (6 hours, 100 uM Q10) was “Upregulation at 6 hours with 100 uM Q10” and the “Pattern of regulation, IRS2 mRNA” value (6 hours, 100 uM Q10) was “Upregulation at 6 hours with 100 uM Q10”. For the same substance, the “Pattern of regulation, ADRB mRNA” value (24 hours, 100 uM Q10) was “Upregulation at 24 hours with 100 uM Q10”, the “Pattern of regulation, DUSP4 mRNA” value (24 hours, 100 uM Q10) was “Upregulation at 24 hours with 100 uM Q10” and the “Pattern of regulation, FOX C2 mRNA” value (24 hours, 100 uM Q10) was “Upregulation at 24 hours with 100 uM Q10”. The “Pattern of regulation, HMOX1 mRNA” value (24 hours, 100 uM Q10) was “Upregulation at 24 and 48 hours with 100 uM Q10”, the “Pattern of regulation, VEGFA mRNA” value (24 hours, 100 uM Q10) was “Upregulation at 24 hours with 100 uM Q10 and 48 hours” and the “Pattern of regulation, VEGFA mRNA” value (48 hours, 50 uM Q10) was “Upregulation at 24 hours with 100 uM Q10 and 48 hours”. For the same substance, the “Pattern of regulation, CEACAM1 mRNA” value (48 hours, 100 uM Q10) was “Upregulation at 48 hours with 100 uM Q10”, the “Pattern of regulation, HMOX1 mRNA” value (48 hours, 100 uM Q10) was “Upregulation at 24 and 48 hours with 100 uM Q10” and the “Pattern of regulation, IL4R mRNA” value (48 hours, 100 uM Q10) was “Upregulation at 48 hours with 100 uM Q10”.
